Values after ≈ are worked out from the molar mass of the structure shown. Like-named read-outs stand apart in the source and are kept apart here.
Columns and labels:
S. aureus [1] = system: S. aureus
S. aureus [2] = assay: microbe, parasite or virus in culture; settings: Staphylococcus aureus, Erythrocyte, in Oryctolagus cuniculus
RNAIII = type: cell-based, S. aureus
S. aureus [3] = assay: Mouse model, Staph mixed with drug prior to IP injection; type: in vivo, mice; settings: mixed with Staph prior to IP injection
Procedure: (§1) The assay was carried out by injecting a fixed amount of a S. aureus culture, typically containing from about 5×10^9 cells from an early exponential growth stage culture, by intraperitoneal (IP) injection into mice, based on the method described by Thakker et al., 1998.
In one study, the S. aureus was mixed with VIF-1 or FTB, prior to IP injection.

S. aureus [4] = assay: Mouse model, Staph injected IP 20 min prior to drug injection (IP); type: in vivo, mice; settings: 20 min after Staph
Procedure: as §1
In another approach, S. aureus was injected IP 20 minutes prior to IP injection of VIF-1 or FTB.
The commonly used anti-Staphylococcal antibiotics, methicillin and vancomycin, were tested in this model.

[5] = read-out: IC50 (relative activity), text b100/b101, assay not named, values match the α-hemolysin column of Table 4
[6] = read-out: Inhibition of α-Hemolysin production, Table 4, (n) in cell = number of determinations

| SMILES | IC50 (relative activity) (S. aureus [1]) [µg] | Inhibition of α-Hemolysin production (S. aureus [1]) | also measured |
| --- | --- | --- | --- |
| O=C(O)CC(NC(=O)OCC1c2ccccc2-c2ccccc21)c1ccc(Br)cc1 (racemic) [(R,S)-Fmoc-3-amino-3-(4-bromophenyl)-propionic acid] | 1.0 |  |  |
| O=C(O)[C@H]1[C@H](c2ccccc2)CN1C(=O)OCC1c2ccccc2-c2ccccc21 (racemic) [Reference #104, Racemic Fmoc-trans-3-phenyl-azetidine-2-carboxylic acid] | 3.9 |  |  |
| O=C(O)CC(NC(=O)OCC1c2ccccc2-c2ccccc21)c1ccc(Br)cc1 (racemic) [Reference #127, (R,S)-Fmoc-3-amino-3-(4-bromophenyl)-propionic acid] |  | 1.4 (3) μg/ml |  |
| O=C(O)[C@@H]1CC[C@H](c2ccccc2)N1C(=O)OCC1c2ccccc2-c2ccccc21 [(2S,5R)-Fmoc-5-phenyl-pyrrolidine-2-carboxylic acid] | 1.0 |  |  |
| O=C(O)CC[C@H](Cc1ccccc1)NC(=O)OCC1c2ccccc2-c2ccccc21 [(R)-Fmoc-4-amino-5-phenyl-pentanoic acid] | 1.7 |  |  |
| O=C(NC1(C(=O)O)CCCCC1)OCC1c2ccccc2-c2ccccc21 [Fmoc-1-amino-1-cyclohexane carboxylic acid] | 0.9 |  |  |
| O=C(N[C@@H](Cc1ccc2ccccc2c1)C(=O)O)OCC1c2ccccc2-c2ccccc21 [Fmoc-3-(2-naphthyl)alanine] |  |  | IC50 (S. aureus [2]; [5]): 4.2 µg/mL (≈ 9.6 µM) |
| CC(C)(C)OC(=O)n1cc(C[C@@H](NC(=O)OCC2c3ccccc3-c3ccccc32)C(=O)O)c2ccccc21 [Fmoc-D-Trp(Boc)-OH] | 1.0 |  |  |
| O=C(N[C@@H](C(=O)O)c1ccccc1)OCC1c2ccccc2-c2ccccc21 [Fmoc-D-phenylglycine] |  |  | IC50 (S. aureus [2]; [5]): 5.5 µg/mL (≈ 14.7 µM) |
| C[C@H](NC(=O)OCC1c2ccccc2-c2ccccc21)C(=O)O [Fmoc-L-Ala-OH] | 6.5 |  |  |
| O=C(N[C@@H](Cc1ccccc1)C(=O)O)OCC1c2ccccc2-c2ccccc21 [Fmoc-L-Phe-OH] | 1.3 |  |  |
| CC(C)(C)OC(=O)n1cc(C[C@H](NC(=O)OCC2c3ccccc3-c3ccccc32)C(=O)O)c2ccccc21 [Fmoc-L-Trp(Boc)-OH] | 1.2 |  |  |
| O=C(N[C@@H](Cc1c[nH]c2ccccc12)C(=O)O)OCC1c2ccccc2-c2ccccc21 [Fmoc-L-Trp-OH] | 9 |  |  |
| CC(C)[C@H](NC(=O)OCC1c2ccccc2-c2ccccc21)C(=O)O [Fmoc-L-Val-OH] | 4.2 |  |  |
| O=C(O)[C@@H]1CCN1C(=O)OCC1c2ccccc2-c2ccccc21 [Fmoc-L-azetidine-2-carboxylic acid] | 12 |  |  |
| O=C(N[C@H](C(=O)O)c1ccccc1)OCC1c2ccccc2-c2ccccc21 [Fmoc-L-phenylglycine] |  |  | IC50 (S. aureus [2]; [5]): 5 µg/mL (≈ 13.4 µM) |
| O=C(N[C@@H](CC1CCCCC1)C(=O)O)OCC1c2ccccc2-c2ccccc21 [Fmoc-beta-cyclohexyl-L-alanine] |  |  | IC50 (S. aureus [2]; [5]): 4 µg/mL (≈ 10.2 µM) |
| O=C(O)[C@H]1Cc2c([nH]c3ccccc23)CN1C(=O)OCC1c2ccccc2-c2ccccc21 [Reference #18, Fmoc-D-1,2,3,4-tetrahydronorharman-3-carboxylic acid] |  | 2.0 (5) μg/ml |  |
| O=C(N[C@@H](Cc1ccccc1)C(=O)O)OCC1c2ccccc2-c2ccccc21 [Reference #32, Fmoc-L-Phe-OH] |  | 1.3 µg/mL | Inhibition of RNA III activation (RNAIII): >2.5 µg/mL |

| SMILES | IC50 (relative activity) (S. aureus [1]) [µg] | Inhibition of α-Hemolysin production (S. aureus [1]) | also measured |
| --- | --- | --- | --- |
| O=C(N[C@@H](Cc1c[nH]c2ccccc12)C(=O)O)OCC1c2ccccc2-c2ccccc21 [Reference #34, Fmoc-L-Trp-OH] |  | 9.0 µg/mL | Inhibition of RNA III activation (RNAIII): >2.5 µg/mL |
| CC(C)[C@H](NC(=O)OCC1c2ccccc2-c2ccccc21)C(=O)O [Reference #38, Fmoc-L-Val-OH] |  | 1.5 µg/mL | Inhibition of RNA III activation (RNAIII): >2.5 µg/mL |
| O=C(N[C@@H](Cc1cnc[nH]1)C(=O)O)OCC1c2ccccc2-c2ccccc21 [Reference #42, Fmoc-L-His] |  | 47 µg/mL |  |
| CC(C)(C)OC(=O)n1cnc(C[C@H](NC(=O)OCC2c3ccccc3-c3ccccc32)C(=O)O)c1 [Reference #43, Fmoc-L-His(Boc)-OH] |  | >50 µg/mL |  |
| CC(C)(C)OC(=O)n1cc(C[C@H](N)C(=O)O)c2ccccc21 [Reference #45, H-L-Trp(Boc)-OH] |  | >50 µg/mL | Inhibition of RNA III activation (RNAIII): >10.0 µg/mL |
| C[C@H](NC(=O)OCC1c2ccccc2-c2ccccc21)C(=O)O [Reference #52, Fmoc-L-Ala-OH] |  | 6.5 µg/mL |  |
| CC(C)C[C@H](NC(=O)OCC1c2ccccc2-c2ccccc21)C(=O)O [Reference #67, Fmoc-L-Leu-OH] |  | 2.1 (4) μg/ml |  |
| O=C(NCCCC[C@H](NC(=O)OCC1c2ccccc2-c2ccccc21)C(=O)O)OCc1ccccc1 [Reference #69, Fmoc-L-Lys(Z)-OH] |  | 2.8 (4) μg/ml | Inhibition of RNA III activation (RNAIII): 4.7 (3) μg/ml |
| O=C(N[C@@H](Cc1ccc(Br)cc1)C(=O)O)OCC1c2ccccc2-c2ccccc21 [Reference #73, Fmoc-4-bromo-L-phenylalanine] |  |  | IC50 (S. aureus [2]; [6]): 1.7 µg/mL (≈ 3.65 µM) |
| Cc1ccc(C[C@H](NC(=O)OCC2c3ccccc3-c3ccccc32)C(=O)O)cc1 [Reference #74, Fmoc-4-methyl-L-phenylalanine] |  |  | IC50 (S. aureus [2]; [6]): 2.3 µg/mL (≈ 5.73 µM) |
| CC(C)(C)OC(=O)n1cc(C[C@@H](NC(=O)OCC2c3ccccc3-c3ccccc32)C(=O)O)c2ccccc21 [Reference #78, Fmoc-D-Trp(Boc)-OH] |  | 1.3 (5) μg/ml |  |
| O=C(N[C@@H](CC1CCCCC1)C(=O)O)OCC1c2ccccc2-c2ccccc21 [Reference #82, Fmoc-beta-cyclohexyl-L-alanine] |  |  | IC50 (S. aureus [2]; [6]): 4 µg/mL (≈ 10.2 µM) |
| O=C(N[C@@H](Cc1ccc(Cl)cc1)C(=O)O)OCC1c2ccccc2-c2ccccc21 [Reference #92, Fmoc-4-chloro-L-D-phenylalanine] |  | 1.6 (5) μg/ml |  |
| O=C(O)[C@@H]1CCN1C(=O)OCC1c2ccccc2-c2ccccc21 [Reference #120, Fmoc-L-azetidine-2-carboxylic acid] |  | 12.0 µg/mL |  |
| O=C(O)CC[C@H](Cc1ccccc1)NC(=O)OCC1c2ccccc2-c2ccccc21 [Reference #126, (R)-Fmoc-4-amino-5-phenyl-pentanoic acid] |  | 1.7 (4) μg/ml | Inhibition of RNA III activation (RNAIII): 9.0 (2) μg/ml |
| N[C@@H](Cc1c[nH]c2ccccc12)C(=O)O [Trp, reference compound] |  |  | % Survival at 24 hr. (S. aureus [3]; 1 mg/kg): 0%; % Survival at 24 hr. (S. aureus [3]; 5 mg/kg): 33% |
| COc1cccc(OC)c1C(=O)N[C@@H]1C(=O)N2[C@@H]1SC(C)(C)[C@@H]2C(=O)O [methicillin, reference compound] |  |  | % Survival at 24 hr. (S. aureus [4]; 1 mg/kg IP): 17%; % Survival at 24 hr. (S. aureus [4]; 10 mg/kg IP): 50%; % Survival at 24 hr. (S. aureus [4]; 100 mg/kg IP): 100% |
| CN[C@H](CC(C)C)C(=O)N[C@H]1C(=O)N[C@@H](CC(N)=O)C(=O)N[C@H]2C(=O)N[C@H]3C(=O)N[C@H](C(=O)N[C@H](C(=O)O)c4cc(O)cc(O)c4-c4cc3ccc4O)[C@H](O)c3ccc(c(Cl)c3)Oc3cc2cc(c3O[C@@H]2O[C@H](CO)[C@@H](O)[C@H](O)[C@H]2O[C@H]2C[C@](C)(N)[C@H](O)[C@H](C)O2)Oc2ccc(cc2Cl)[C@H]1O [vancomycin, reference compound] |  |  | % Survival at 24 hr. (S. aureus [4]; 0.5 mg/kg IP): 17%; % Survival at 24 hr. (S. aureus [4]; 5 mg/kg IP): 50%; % Survival at 24 hr. (S. aureus [4]; 50 mg/kg IP): 100% |

Reference: US20030050248A1 (priority 2000, published 2003)
